The series in a line: Solubility. Format: physicochemical. The note with it: precipitation at higher concentrations in the assay.

Structures are written as SMILES.

Turning to `O=C(Nc1ccc(-c2ccccc2)cc1)Nc1ccc(-c2ccnc3[nH]cnc23)cc1` [Compound 17], the solubility entry is “poor solubility”.
